The values that follow come from patent publication US20260085315A1, “POLYNUCLEOTIDE COMPOSITIONS AND METHODS FOR TREATMENT OF CANCER” (APTAH BIO, INC., priority 2023, published 2026).

The test system of data set [1] is MCF-7 cell line. Put plainly: Internalization of carboxyfluorescein-conjugated APT20TTMG by flow cytometry. The format is cell-based, Human. The settings on record: 1 μM carboxyfluorescein conjugate. The procedure:
To investigate the internalization of ASMO APT20TTMG by MCF-7 cell line, the quantification of intracellular fluorescence was measured by flow cytometry. For this aim, the ASMO APT20TTMG was conjugated to the fluorochrome carboxyfluorescein. It is assumed that the percentage of ASMO molecules internalized is presumably proportional to the quantified fluorescence signal detected inside the cells. The cell lines were cultured in 24-well plates for 24 hours at 5×10^4 cells per well. After that, the cells were incubated with ASMO1 prepared in culture medium without FBS at a concentration of 1 μM for 0.5, 1, 2, 4, and 6 hours. Untreated cells were used as negative controls. After treatment incubation, cells were washed twice with 1 mL of PBS/well and then incubated with 200 μL/well of trypsin/EDTA solution for approximately 3 minutes for disaggregation of adherent cells. Trypsin was neutralized by the addition of complete medium and cells were centrifuged at 1500 rpm for 5 minutes. Subsequently, the cells were washed with 2 mL/sample of PBS and centrifuged again at 1500 rpm for 5 minutes. […] The fluorescence of the cells, corresponding to the cellular uptake of the APT20TTMG labeled with carboxyfluorescein, was analyzed using a BD FACSCANTO II Flow cytometer (BD Biosciences, NJ, USA) through the acquisition of 10.000 gated events considering each sample.

The test system of data set [2] is MCF-7 cell line. As to the kind of experiment: Mitochondrial membrane potential (MitoTracker Red). The format is cell-based, Human. The settings on record: 0.25, 0.5, 1 μM; 24 hours; vs non-treated cells. Here is the method: The evaluation of ASMO1 APT20TTMG effect on the mitochondrial membrane potential of MCF-7 cell line was performed using MitoTracker Red dye. MitoTracker Red is a cationic fluorophore that accumulates in the mitochondria matrix, providing an indication of the viability and integrity of that organelle.
For this, cells were cultured overnight in 24-well plates at a density of 1×10^5 cells/well, aiming cell adhesion. After that, cells were treated with three concentrations of APT20TTMG (0.25, 0.5, and 1 μM) for 24 hours. After treatment with the ASMO1, cells were collected using a 0.05% trypsin solution and washed twice with 2.0 mL of PBS buffer. Finally, samples were incubated with 500 μL of MitoTracker Red fluorescent dye solution at a concentration of 50 nM for 15 minutes in an incubator. Then the cells were again washed twice with 2 mL of PBS and, subsequently, analyzed in a flow cytometer (BD FACSCanto II, BD Biosciences) through the acquisition of 10.000 gated events/sample.

In data set [3] the test system is MCF-7 cell line. Put plainly: Cell cycle assay (propidium iodide, flow cytometry). It counts as cell-based, Human. The settings on record: 0.25 and 0.5 μM; 48 hours; only statistically significant alteration. The procedure:
Cell cycle assays were performed to understand how the ASMO APT20TTMG affects the cell cycle of MCF-7 cell line and its potential mechanisms of action. Initially, cells were plated in 12-well plates at a density of 5×10^4 cells/well and cultured for 24 hours for adhesion and then treated with three different concentrations of APT20TTMG (0.25, 0.5 and 1.0 μM) for 48 hours. After, cells were collected using a solution of trypsin/EDTA and washed with 2.0 mL of PBS buffer followed by centrifugation at 1500 rpm for 5 minutes. Then, the cells were fixed with ice-cold 70% ethanol and incubated overnight at 4° C. After that, cells were washed again with 2.0 mL of PBS and incubated with Propidium Iodide solution (50 μg/mL) and RNAse (200 μg/mL) for 1 hour at room temperature and protected from light. Finally, the cells were analyzed in a flow cytometer (BD FACSCanto II, BD Biosciences), through the acquisition of 10.000 gated events considering each sample.
(In flow cytometry, cells or beads pass a laser one at a time.)

A further data set relates to U87-MG cell line. Put plainly: Distribution of cell cycle phases. It counts as cell-based, Human. The settings on record: 0.25 μM, 48 hours. Here is the method: The methodologies for this Example are the same as shown in Example 4.
Cells were plated and treated with 3 different concentrations (0.25, 0.5, and 1 μM) of APT20TTMG and cell cycle phases were evaluated after 48 hours of incubation. Cell proliferation is regulated by cell cycle progression. Phases: Sub/G1: non-proliferative state (quiescence); G1/G0: cell growth; S: DNA replication; G2/M: DNA segregation and mitosis. Results were expressed as Mean Standard Error of three independent experiments.

Data set [4] relates to SH-SY5Y cell line. As to the kind of experiment: Distribution of cell cycle phases. The format is cell-based, Human. The settings on record: any concentration evaluated.
Data set [5] has as its system SH-SY5Y cell line. Put plainly: MTT mitochondrial activity / cell viability. The format is cell-based, Human. The settings on record: any concentration; 24 and 48 hours. The procedure: FIG. 22A-22B illustrates the evaluation of mitochondrial activity in SH-SY5Y cell line after incubation in ASMO1. MTT assay was performed after 24 hours (FIG. 22A) and 48 hours (FIG. 22B) of incubation.

The subject of a further data set is PC-3 cell line. Put plainly: MTT cytotoxicity assay on human cancer cell panel (Example 2). It counts as cell-based. The settings on record: 24, 48, 72 hours; 0.03-30 μM; 1% FBS. Here is the method: Cell lines were maintained in growth medium with 10% of Fetal Bovine Serum (FBS) until the time of the experiments. Cells were sub-cultured by trypsinization and splitting the cell suspension into fresh flasks and supplementing with fresh culture medium. To perform the assay, the cells were trypsinized, neutralized with complete medium (10% FBS), centrifuged, counted with assistance of a hemocytometer, and plated with the respective media with 10% FBS. Cell lines were plated at a density of 1×10^4 cells per well, other than the SH-SY5Y cell line which was plated at a density of 2.5×10^4. The preparation of the different experimental groups was done with 0.1% FBS (U87MG, MCF-7, SH-SY5Y and 786-O) and 1% FBS (PC-3). The untreated cells were used as negative control (medium only). After 24, 48, 72 and 96 hours of incubation, the effect of ASMO1 and controls on cytotoxicity of cells was determined by MTT assay.
Briefly, plates were taken out and 20 μl of 5 mg/ml of MTT 3-(4,5-dimethythiazol-2-yl)-2,5-diphenyl tetrazolium bromide solution was added to all the wells. […] The absorbance of each well was then read at 540 nm using Synergy HT microplate reader.
Cells were plated and treated with 7 different concentrations (0.03, 0.1, 0.3, 1, 3, 10 and 30 μM) of APT20TTMG with medium (1% FBS). MTT assay was performed in 3 distinct times and graphs are represented as absorbance (540 nm). […]
(In general: Tetrazolium assays rely on reduction of a dye to a coloured formazan, in cell work by metabolically active cells.)

d = 2'-deoxy (DNA); m = 2'-O-methyl

As for “APT20TTMG: engineered polynucleotide ASMO1, 24 nt, SEQ ID NO: 3 gtccactaacctttcaggccagcg; targeting moieties 5′-GTCCA-3′ and 5′-CG-3′, U1 snRNP recruiting moiety (GTCCACTAACCTTTCAGGCCAGCG; sugars from the 5' end m5 d14 m5, all phosphorothioate, methylation of C and T or U not given here)”, the internalization entry with MCF-7 cell line [1] (after 1 hour and subsequent period (to 6 h)) is given as “around 80%”; in the data set on MCF-7 cell line [1] (first half hour), 75.3±1.4%. For the same substance, the mitochondrial membrane potential entry with MCF-7 cell line [2] is recorded as “no change in mitochondrial membrane potential”. In addition, in the data set with MCF-7 cell line [3], the “cells in S phase of cell cycle” value was “lower concentration of cells”. Moreover, the “cells in G1/G0 phase” value in the data set on U87-MG cell line (p=0.0036) is recorded as “reduction in retention”. The “cells in G2/M phase” value with U87-MG cell line (p=0.0425) is reported as “increase in retention”. Moreover, the cell cycle phases entry with SH-SY5Y cell line [4] is “no change in cell cycle phases”. In the data set with SH-SY5Y cell line [5], the “cell viability (MTT)” value is recorded as “no change in cell viability”. The “cytotoxic or cytostatic effect (MTT)” value with PC-3 cell line is “does not exert a cytotoxic or cytostatic effect”.
